Experimental data from ChEMBL document CHEMBL1134339, “New 1-aryl-3-(4-arylpiperazin-1-yl)propane derivatives, with dual action at 5-HT1A serotonin receptors and serotonin transporter, as a new class of antidepressants” (J Med Chem, 2001).

How the values were obtained:
[1] = biological target: T1, 5-hydroxytryptamine receptor 3A (Rattus norvegicus, UniProt P35563); test: Affinity at 5-hydroxytryptamine 3 receptor from rat frontal cortex using [3H]granisetron as radioligand (For granisetron = Ki(nM)=0.3+/-0.01); assay type: tissue-based
T1 sequence (P35563 whole entry): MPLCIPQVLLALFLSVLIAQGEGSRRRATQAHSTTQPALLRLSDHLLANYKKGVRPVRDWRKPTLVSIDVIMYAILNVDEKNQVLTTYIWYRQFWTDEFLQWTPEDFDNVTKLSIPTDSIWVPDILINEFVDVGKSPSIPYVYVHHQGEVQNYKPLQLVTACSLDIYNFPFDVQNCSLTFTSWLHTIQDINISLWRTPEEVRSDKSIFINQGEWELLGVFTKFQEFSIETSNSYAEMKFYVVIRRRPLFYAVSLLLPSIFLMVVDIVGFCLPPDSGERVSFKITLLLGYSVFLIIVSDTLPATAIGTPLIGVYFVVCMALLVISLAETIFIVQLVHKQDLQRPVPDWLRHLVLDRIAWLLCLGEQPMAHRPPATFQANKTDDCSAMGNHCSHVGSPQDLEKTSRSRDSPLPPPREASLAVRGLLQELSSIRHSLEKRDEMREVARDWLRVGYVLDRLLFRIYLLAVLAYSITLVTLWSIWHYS

Rattus norvegicus [2] = test: Effect on helpless behavior in rats and the number of escape failures was determined in shuttle-box session-3 (SB-) at 1 mg/kg dose; assay type: functional
Mus musculus [3] = test: Antidepressant-like activity in the forced swimming test (FST) in mice at 0.001 mg/kg dose; Antidepressant like activity; assay type: functional
Mus musculus [4] = test: Effect on immobility time in the forced swimming test (FST) in mice at 0.001 mg/kg dose; assay type: functional
Mus musculus [5] = test: Time-dependent effect on 8-OH-DPAT-induced hypothermia (change in body temperature) after 15 min, in mice at 0.01 mg/kg dose; assay type: functional
Rattus norvegicus [6] = test: Effect on helpless behavior in rats and the number of escape failures was determined in shuttle-box session-3 (SB-3) at 10 mg/kg dose; assay type: functional
Mus musculus [7] = test: Time-dependent effect on 8-OH-DPAT-induced hypothermia (change in body temperature) after 60 min, in mice at 0.01 mg/kg dose; assay type: functional
Rattus norvegicus [8] = test: Effect on helpless behavior in rats and the number of escape failures was determined in shuttle-box session-3 (SB-3) at 1 mg/kg dose; assay type: functional
[9] = biological target: T2, 5-hydroxytryptamine receptor 1A (Homo sapiens) (UniProt P08908); test: Percent increase in the Forskolin-Stimulated cAMP formation, in HeLa cells transfected with the 5-HT 1A receptor a [compound (1 uM)]; assay type: functional, cell-based
T2 sequence (whole entry): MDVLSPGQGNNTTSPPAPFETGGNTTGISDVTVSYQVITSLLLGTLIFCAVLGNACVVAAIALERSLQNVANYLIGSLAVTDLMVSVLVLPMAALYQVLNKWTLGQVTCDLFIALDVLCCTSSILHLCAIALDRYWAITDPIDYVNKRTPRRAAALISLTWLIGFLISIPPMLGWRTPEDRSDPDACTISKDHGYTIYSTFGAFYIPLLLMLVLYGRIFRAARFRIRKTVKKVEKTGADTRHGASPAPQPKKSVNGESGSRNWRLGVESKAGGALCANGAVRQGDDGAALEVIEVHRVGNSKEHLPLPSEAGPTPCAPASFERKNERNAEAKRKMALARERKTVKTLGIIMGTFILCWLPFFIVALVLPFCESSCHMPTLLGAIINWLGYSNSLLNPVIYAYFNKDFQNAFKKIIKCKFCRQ

Mus musculus [10] = test: Antidepressant-like activity in the forced swimming test (FST) in mice at 1 mg/kg dose; assay type: functional
Mus musculus [11] = test: Antidepressant-like activity in the forced swimming test (FST) in mice at 10 mg/kg dose; assay type: functional
[12] = biological target: T3, Adrenergic receptor alpha-2 (Rattus norvegicus, UniProt P22086+P19328+P22909); test: Affinity towards alpha-2 adrenergic receptor (For clonidine Ki(nM)= […]+/-[…]); assay type: protein assay
T3 sequence (P22086 whole entry): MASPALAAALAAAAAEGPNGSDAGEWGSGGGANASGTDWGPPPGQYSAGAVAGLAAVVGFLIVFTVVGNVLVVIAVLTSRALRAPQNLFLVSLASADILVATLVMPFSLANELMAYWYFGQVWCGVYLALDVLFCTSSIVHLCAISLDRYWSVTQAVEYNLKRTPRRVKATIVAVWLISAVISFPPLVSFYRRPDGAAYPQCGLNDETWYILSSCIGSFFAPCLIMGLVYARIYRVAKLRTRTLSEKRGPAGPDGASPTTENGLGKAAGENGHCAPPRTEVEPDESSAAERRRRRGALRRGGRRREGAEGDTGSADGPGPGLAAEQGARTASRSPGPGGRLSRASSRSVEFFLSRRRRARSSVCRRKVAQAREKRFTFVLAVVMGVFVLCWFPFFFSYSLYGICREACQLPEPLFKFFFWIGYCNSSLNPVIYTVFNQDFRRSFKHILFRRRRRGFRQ
T3 sequence (P19328 whole entry): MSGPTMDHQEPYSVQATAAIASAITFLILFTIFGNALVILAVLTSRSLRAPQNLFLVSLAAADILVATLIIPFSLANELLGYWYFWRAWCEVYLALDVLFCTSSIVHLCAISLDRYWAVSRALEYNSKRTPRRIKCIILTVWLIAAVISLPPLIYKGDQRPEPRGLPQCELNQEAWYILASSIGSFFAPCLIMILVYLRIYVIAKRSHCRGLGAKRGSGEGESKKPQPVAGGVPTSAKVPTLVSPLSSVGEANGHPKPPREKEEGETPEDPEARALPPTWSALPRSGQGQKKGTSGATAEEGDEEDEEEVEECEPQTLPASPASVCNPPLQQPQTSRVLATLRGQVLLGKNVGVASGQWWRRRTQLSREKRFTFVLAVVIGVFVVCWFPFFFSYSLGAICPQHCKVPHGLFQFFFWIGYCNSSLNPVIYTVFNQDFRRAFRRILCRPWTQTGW
T3 sequence (P22909 whole entry): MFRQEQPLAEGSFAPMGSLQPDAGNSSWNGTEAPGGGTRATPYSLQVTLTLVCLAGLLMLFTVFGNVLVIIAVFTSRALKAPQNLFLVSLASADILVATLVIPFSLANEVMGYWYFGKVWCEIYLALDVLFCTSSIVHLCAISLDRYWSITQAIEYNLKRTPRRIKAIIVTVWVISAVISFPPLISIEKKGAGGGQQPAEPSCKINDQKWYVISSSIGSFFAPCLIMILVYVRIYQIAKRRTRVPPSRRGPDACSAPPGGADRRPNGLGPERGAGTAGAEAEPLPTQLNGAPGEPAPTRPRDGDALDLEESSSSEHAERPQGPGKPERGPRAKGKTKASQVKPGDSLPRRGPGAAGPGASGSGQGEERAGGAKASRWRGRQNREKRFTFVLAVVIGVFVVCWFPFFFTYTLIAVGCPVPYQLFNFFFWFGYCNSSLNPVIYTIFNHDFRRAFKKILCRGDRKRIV

[13] = biological target: 5-hydroxytryptamine receptor 1D (Homo sapiens, UniProt P28221); test: Affinity at 5-hydroxytryptamine 1D receptor (For sumatriptan = Ki (nM)-12+/-1.9)
Chain of 5-hydroxytryptamine receptor 1D (P28221 whole entry): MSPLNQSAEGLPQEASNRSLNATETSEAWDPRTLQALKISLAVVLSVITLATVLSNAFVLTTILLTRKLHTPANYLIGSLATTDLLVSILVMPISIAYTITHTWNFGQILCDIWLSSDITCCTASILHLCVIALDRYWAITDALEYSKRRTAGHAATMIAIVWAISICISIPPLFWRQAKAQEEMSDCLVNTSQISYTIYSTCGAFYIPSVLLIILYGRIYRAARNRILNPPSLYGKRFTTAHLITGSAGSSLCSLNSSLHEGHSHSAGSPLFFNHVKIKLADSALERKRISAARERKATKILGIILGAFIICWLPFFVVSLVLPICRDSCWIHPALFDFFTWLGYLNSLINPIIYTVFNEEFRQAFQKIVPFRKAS

SMILES | Ki [1] | No. of escape failures (Rattus norvegicus [2]) | Activity (Mus musculus [3]) | Immobility time (Mus musculus [4]) | Temperature change (Mus musculus [5]) | No. of escape failures (Rattus norvegicus [6]) | Temperature change (Mus musculus [7]) | No. of escape failures (Rattus norvegicus [8]) | cAMP increase [9] | Activity (Mus musculus [10]) | Activity (Mus musculus [11]) | Ki [12] | Ki [13]
COc1ccccc1N1CCN(CCC(O)c2csc3ccccc23)CC1 (stereo not given) | > 5 µM | 1.8 | 67% | <58.8 s | -1.26 °C | 4 | -0.73 °C | – | – | – | – | – | –
COc1ccccc1N1CCN(CCC(Oc2cccc3ccccc23)c2ccsc2)CC1 (stereo not given) | > 5 µM | – | – | – | – | – | – | 0.5 | 52% | – | – | – | –
COc1ccccc1N1CCN(CCC(=O)c2csc3ccccc23)CC1 | – | – | – | – | – | – | – | <2.8 | – | 60% | 54% | 0.28 µM | 5 µM
